Reference: patent US4618678A, “4-(2,3-dichloro-6-fluorophenyl)-1,4,5,6,7,8-hexahyd ro-2-methyl-5-oxo-1,7-naphthyridine-3-carboxylic acid 2-(2,3-dichlorophenoxy)ethyl ester” (American Home Products Corporation, priority 1985, dated 1986)

Assays:
[1] = tested on: spontaneously hypertensive rats; experiment: Hypotensive effect on systolic blood pressure of spontaneously hypertensive rats; format: in vivo, rat; conditions: SHR, oral, 10 mg/kg, at 1.5 hours
[2] = tested on: arterial actin-myosin interactions; experiment: Inhibition of superprecipitation (antagonism of arterial actin-myosin interaction); format: biochemical; conditions: for Antag. of Actin-Myosin (percent inhibition of superprecipitation): six minute time-point; for antagonism of arterial actin-myosin interactions (in words): 'unlike' = does not antagonize as the compounds of the invention do
Procedure: (§1) The data reported herein was obtained at a six minute time-point rather than the 1.5, 5 and 12 minute time points indicated in the superprecipitation assay of the Silver et al. paper.
(§2) The following examples illustrate the preparation of a representative number of compounds of this invention. After each example, the Ca^+2 antagonist activity of the compound is presented in terms of percent relaxation of aortic tissue (P.R.) at 10^-5 M concentration. […] Inhibition of superprecipitation (Antag. of Actin-Myosin interaction) is expressed as percent inhibition (mean±standard error of the mean for at least 3 separate experiments) at a compound concentration. In the same manner, inhibition of myosin light chain phosphorylation (Antag. of MLCP) is expressed as a percent inhibition at a compound concentration. Similarly, the antihypertensive activity is reported in terms of millimeters mercury (mmHg) systolic blood pressure (B.P.) reduction at the stated time post 50 mg/kg oral dosing or other dosing as indicated.

[3] = tested on: isolated paced intact rabbit atria; experiment: Cardiac depressant (negative inotropic) effect in isolated paced intact rabbit atria; format: cell-based; conditions: 3 Hz, 30° C.
Procedure: The potential for detrimental cardiac depressant (negative inotropic) effects of the compounds of this invention was assessed in isolated paced intact rabbit atria. Left and right atria (with nodal tissue excised) were suspended vertically in a jacketed (30° C.) organ bath containing 50 ml of PSS and aerated with 95% O2 /5% CO2. Muscles (N=5-9/compound) were stimulated at a frequency of 3 Hz with a WPI stimulator for a 60 minute equilibration period. Changes in isometric force were recorded as described for the aoritc smooth muscle experiments,supra. Following equilibration, the test compound (or as a control, the ethanol vehicle) was added to the organ bath in a cumulative manner from doses ranging from 10^-9 M to 10^-5 M (10^-5 M was the maximum dose which could be attained due to the depressant effect of ethanol) and effects on developed isometric force were determined. […]
The following examples illustrate the preparation of a representative number of compounds of this invention. […] Inhibition of superprecipitation (Antag. of Actin-Myosin interaction) is expressed as percent inhibition (mean±standard error of the mean for at least 3 separate experiments) at a compound concentration. In the same manner, inhibition of myosin light chain phosphorylation (Antag. of MLCP) is expressed as a percent inhibition at a compound concentration. […]

[4] = tested on: Ca^+2 -calmodulin dependent myosin light chain phosphorylation; experiment: Inhibition of Ca+2-calmodulin dependent myosin light chain phosphorylation (MLCP); format: biochemical; conditions: 'unlike' = does not antagonize as the compounds of the invention do
Procedure: as §1, §2

With CC1=C(C(=O)OCCOc2ccccc2)C(c2c(F)c(F)c(F)c(F)c2F)C2=C(CNCC2=O)N1 (racemic) [Example 2, 1,4,5,6,7,8-Hexahydro-2-methyl-5-oxo-4-(pentafluorophenyl)-1,7-naphthyridine-3-carboxylic acid 2-phenoxyethyl ester] the “B.P. (systolic blood pressure reduction)” value [1] was 39 mm and the “Antag. of Actin-Myosin (percent inhibition of superprecipitation)” value ([2]; 100 μM) was 72±2%.

CC1=C(C(=O)OCCOc2ccccc2)C(c2c(F)c(F)c(F)c(F)c2F)C2=C(CNCC2=O)N1 (single isomer, unassigned; (+)) [Example 4, (+)-1,4,5,6,7,8-Hexahydro-2-methyl-5-oxo-4-(pentafluorophenyl)-1,7-naphthyridine-3-carboxylic acid 2-phenoxyethyl ester] was tested, and the “IC25 (concentration producing 25% inhibition of isometric force)” value [3] was 0.8 µM, the “Antag. of Actin-Myosin (percent inhibition of superprecipitation)” value ([2]; 50 μM) was 38% and the “Antag. of Actin-Myosin (percent inhibition of superprecipitation)” value ([2]; 100 μM) was 71%.

CC1=C(C(=O)OCCOc2ccccc2)C(c2c(F)c(F)c(F)c(F)c2F)C2=C(CNCC2=O)N1 (single isomer, unassigned; (-)) [Example 3, (-)-1,4,5,6,7,8-Hexahydro-2-methyl-5-oxo-4-(pentafluorophenyl)-1,7-naphthyridine-3-carboxylic acid 2-phenoxyethyl ester] was tested, and the “IC25 (concentration producing 25% inhibition of isometric force)” value [3] was > 10 µM, the “Antag. of Actin-Myosin (percent inhibition of superprecipitation)” value ([2]; 50 μM) was 65% and the “Antag. of Actin-Myosin (percent inhibition of superprecipitation)” value ([2]; 100 μM) was 76%.

In the case of CCOC(=O)C1=C(C)NC(C)=C(C(=O)OC)C1c1cccc([N+](=O)[O-])c1 (centres unmarked) [nitrendipine, reference compound], the “antagonism of Ca^+2 -calmodulin dependent myosin light chain phosphorylation (in words)” value [4] is reported as “unlike” and the “antagonism of arterial actin-myosin interactions (in words)” value [2] is reported as “unlike”.

With COc1ccc(CCN(C)CCCC(C#N)(c2ccc(OC)c(OC)c2)C(C)C)cc1OC (centres unmarked) [Verapamil, reference compound] the “antagonism of Ca^+2 -calmodulin dependent myosin light chain phosphorylation (in words)” value [4] was “unlike” and the “antagonism of arterial actin-myosin interactions (in words)” value [2] was “unlike”.

In the case of COC(=O)C1=C(C)NC(C)=C(C(=O)OC)C1c1ccccc1[N+](=O)[O-] [nifedipine, reference compound], the “antagonism of Ca^+2 -calmodulin dependent myosin light chain phosphorylation (in words)” value [4] is reported as “unlike” and the “antagonism of arterial actin-myosin interactions (in words)” value [2] is reported as “unlike”.
